According to ChEMBL document CHEMBL4334438, “Discovery of novel glycogen synthase kinase-3α inhibitors: Structure-based virtual screening, preliminary SAR and biological evaluation for treatment of acute myeloid leukemia” (Eur J Med Chem, 2019):

Biological target: Serine/threonine-protein kinase MRCK gamma (Homo sapiens) (UniProt Q6DT37)
Experiment: Inhibition of recombinant human MRCKgamma assessed as residual activity at 1 uM using KKRNRTLTV as substrate measured after 40 mins in presence of [gamma33P]ATP by scintillation counting method relative to control

Chain of Serine/threonine-protein kinase MRCK gamma (Homo sapiens) (Q6DT37 whole entry): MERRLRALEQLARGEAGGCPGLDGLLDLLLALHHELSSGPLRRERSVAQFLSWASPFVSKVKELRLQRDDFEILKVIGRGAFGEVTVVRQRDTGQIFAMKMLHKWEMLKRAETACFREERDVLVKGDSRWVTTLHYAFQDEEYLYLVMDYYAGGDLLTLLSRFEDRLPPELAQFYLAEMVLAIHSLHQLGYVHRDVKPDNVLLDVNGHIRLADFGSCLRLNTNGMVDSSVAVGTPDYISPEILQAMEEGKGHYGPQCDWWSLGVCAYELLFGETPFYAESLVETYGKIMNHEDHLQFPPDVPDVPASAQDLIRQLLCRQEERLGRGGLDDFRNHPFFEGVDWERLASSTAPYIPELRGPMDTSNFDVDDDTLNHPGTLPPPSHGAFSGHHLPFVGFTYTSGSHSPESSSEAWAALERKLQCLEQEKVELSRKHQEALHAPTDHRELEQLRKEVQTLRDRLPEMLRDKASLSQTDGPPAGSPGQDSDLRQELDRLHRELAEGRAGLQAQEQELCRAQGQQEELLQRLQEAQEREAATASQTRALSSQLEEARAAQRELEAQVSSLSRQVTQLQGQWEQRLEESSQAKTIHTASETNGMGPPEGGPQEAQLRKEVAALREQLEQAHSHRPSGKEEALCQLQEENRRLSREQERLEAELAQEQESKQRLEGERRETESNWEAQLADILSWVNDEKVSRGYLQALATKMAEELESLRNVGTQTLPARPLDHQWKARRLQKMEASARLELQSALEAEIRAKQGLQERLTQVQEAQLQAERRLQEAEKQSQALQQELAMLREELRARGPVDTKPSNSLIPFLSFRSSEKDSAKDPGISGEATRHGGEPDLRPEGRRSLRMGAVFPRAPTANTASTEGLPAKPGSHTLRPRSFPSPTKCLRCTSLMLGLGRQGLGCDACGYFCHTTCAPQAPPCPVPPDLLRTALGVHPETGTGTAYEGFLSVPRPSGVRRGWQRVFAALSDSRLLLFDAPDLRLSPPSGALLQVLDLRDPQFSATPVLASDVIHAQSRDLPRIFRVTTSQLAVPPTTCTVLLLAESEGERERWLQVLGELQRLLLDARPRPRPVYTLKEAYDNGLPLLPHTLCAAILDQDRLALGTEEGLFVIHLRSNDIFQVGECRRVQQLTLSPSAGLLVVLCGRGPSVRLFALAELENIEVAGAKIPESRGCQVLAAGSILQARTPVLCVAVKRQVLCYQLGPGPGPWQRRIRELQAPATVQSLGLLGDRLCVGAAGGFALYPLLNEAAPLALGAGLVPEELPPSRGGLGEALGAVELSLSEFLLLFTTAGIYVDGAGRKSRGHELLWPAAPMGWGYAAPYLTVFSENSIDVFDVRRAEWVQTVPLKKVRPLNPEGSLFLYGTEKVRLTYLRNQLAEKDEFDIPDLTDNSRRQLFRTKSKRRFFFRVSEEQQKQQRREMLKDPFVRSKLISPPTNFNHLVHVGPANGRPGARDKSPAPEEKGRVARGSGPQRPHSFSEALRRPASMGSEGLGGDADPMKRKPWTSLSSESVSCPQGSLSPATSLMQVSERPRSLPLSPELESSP

## C=CCOC(=O)c1cc(-c2ccc(/C=C3/NC(=S)NC3=O)o2)ccc1Cl
  Activity: 110%
